Source: patent publication US20230413820A1, “HERBICIDAL N-HETEROARYL PYRAZOLE COMPOUNDS” (SYNGENTA CROP PROTECTION AG, priority 2020, published 2023)

What was measured:
Type in all cases: in vivo
[1] = tested on: Abutilon theophrasti (ABUTH); assay: Post-emergence herbicide glasshouse test; details: 250 g/ha, sprayed after 8 days cultivation, evaluated after 13 days
Procedure: (§1) Seeds of a variety of test species (Abutilon theophrasti (ABUTH), Amaranthus retoflexus (AMARE), Echinochloa crus-galli (ECHCG), Ipomoea hederacea (IPOHE), Setaria faberi (SETFA)) are sown in standard soil in pots. After cultivation for one day (pre-emergence) or after 8 days cultivation (post-emergence) under controlled conditions in a glasshouse (at 24/16° C., day/night; 14 hours light; 65% humidity), the plants are sprayed with an aqueous spray solution derived from the formulation of the technical active ingredient in acetone/water (50:50) solution containing 0.5% Tween 20 (polyoxyethelyene sorbitan monolaurate, CAS RN 9005-64-5). Compounds are applied at 250 g/ha unless otherwise stated. The test plants are then grown in a glasshouse under controlled conditions in a glasshouse (at 24/16° C., day/night; 14 hours light; 65% humidity) and watered twice daily. After 13 days for pre- and post-emergence, the test is evaluated for the percentage damage caused to the plant. The biological activities are shown in the following table on a five-point scale (5=81-100%; 4=61-80%; 3=41-60%; 2=21-40%; 1=0-20%).

[2] = tested on: Amaranthus retoflexus (AMARE); assay: Post-emergence herbicide glasshouse test; details: 250 g/ha, sprayed after 8 days cultivation, evaluated after 13 days
Procedure: as §1

[3] = tested on: Echinochloa crus-galli (ECHCG); assay: Post-emergence herbicide glasshouse test; details: 250 g/ha, sprayed after 8 days cultivation, evaluated after 13 days
Procedure: as §1

[4] = tested on: Ipomoea hederacea (IPOHE); assay: Post-emergence herbicide glasshouse test; details: 250 g/ha, sprayed after 8 days cultivation, evaluated after 13 days
Procedure: as §1

Setaria faberi (SETFA) [5] = assay: Post-emergence herbicide glasshouse test; details: 250 g/ha, sprayed after 8 days cultivation, evaluated after 13 days
Procedure: as §1

[6] = tested on: Abutilon theophrasti (ABUTH); assay: Pre-emergence herbicide glasshouse test; details: 250 g/ha, sprayed after one day cultivation, evaluated after 13 days
Procedure: as §1

[7] = tested on: Amaranthus retoflexus (AMARE); assay: Pre-emergence herbicide glasshouse test; details: 250 g/ha, sprayed after one day cultivation, evaluated after 13 days
Procedure: as §1

[8] = tested on: Echinochloa crus-galli (ECHCG); assay: Pre-emergence herbicide glasshouse test; details: 250 g/ha, sprayed after one day cultivation, evaluated after 13 days
Procedure: as §1

[9] = tested on: Ipomoea hederacea (IPOHE); assay: Pre-emergence herbicide glasshouse test; details: 250 g/ha, sprayed after one day cultivation, evaluated after 13 days
Procedure: as §1

Setaria faberi (SETFA) [10] = assay: Pre-emergence herbicide glasshouse test; details: 250 g/ha, sprayed after one day cultivation, evaluated after 13 days
Procedure: as §1

Structure (SMILES) | percentage damage caused to the plant, ABUTH [1] | percentage damage caused to the plant, AMARE [2] | percentage damage caused to the plant, ECHCG [3] | percentage damage caused to the plant, IPOHE [4] | percentage damage caused to the plant, SETFA (Setaria faberi (SETFA) [5]) | percentage damage caused to the plant, ABUTH [6] | percentage damage caused to the plant, AMARE [7] | percentage damage caused to the plant, ECHCG [8] | percentage damage caused to the plant, IPOHE [9] | percentage damage caused to the plant, SETFA (Setaria faberi (SETFA) [10])
FC(F)Oc1cccc(Oc2cc(C(F)(F)F)nn2-c2ncc(Cl)cn2)n1 [Compound 1.002] | 5 (5=81-100%) | 5 (5=81-100%) | 5 (5=81-100%) | 4 (4=61-80%) | 5 (5=81-100%) | 4 (4=61-80%) | 5 (5=81-100%) | 5 (5=81-100%) | 3 (3=41-60%) | 5 (5=81-100%)
Fc1cnc(-n2nc(C(F)(F)F)cc2Oc2cccc(OC(F)F)n2)nc1 [Compound 1.005, 2-[5-[[6-(difluoromethoxy)-2-pyridyl]oxy]-3-(trifluoromethyl)pyrazol-1-yl]-5-fluoro-pyrimidine] | 5 (5=81-100%) | 5 (5=81-100%) | 4 (4=61-80%) | 4 (4=61-80%) | 4 (4=61-80%) | 4 (4=61-80%) | 5 (5=81-100%) | 5 (5=81-100%) | 5 (5=81-100%) | 5 (5=81-100%)
COc1ccnc(-n2nc(C(F)(F)F)cc2Oc2cccc(OC(F)F)n2)n1 [Compound 1.026] | 1 (1=0-20%) | 3 (3=41-60%) | 1 (1=0-20%) | 1 (1=0-20%) | 1 (1=0-20%) | 2 (2=21-40%) | 4 (4=61-80%) | 1 (1=0-20%) | 1 (1=0-20%) | 1 (1=0-20%)
